Data reported in US20180044350A1, “THERAPEUTIC CYCLIC COMPOUNDS AS IMMUNOMODULATORS” (priority 2015, published 2018).

Each molecule was assayed against T1, Recombinant mouse PD-L1 (Mus musculus, UniProt Q9EP73) (assay: Rescue of mouse splenocyte proliferation in the presence of recombinant PD-L1 (CFSE proliferation assay)). Conditions: 100 nM compound; anti-CD3/CD28 stimulated CFSE-labelled mouse splenocytes + PD-L1, 72 h; normalised to stimulated splenocyte proliferation as 100%; read-out: Percent rescue of proliferation (@100 nM compound concentration).
T1 construct: Fc (Fc chimera); purchased R&D Systems 1019-B7-100
Type: cell-based
Method: Rescue of Mouse Splenocyte Proliferation in the Presence of Recombinant PD-L1
Recombinant mouse PD-L1 (rm-PDL-1, cat no: 1019-B7-100; R&D Systems) were used as the source of PD-L1.
Mouse splenocytes harvested from 6-8 weeks old C57 BL6 mice; RPMI 1640 (GIBCO, Cat #11875); DMEM with high glucose (GIBCO, Cat #D6429); Fetal Bovine Serum └Hyclone, Cat #SH30071.03┘; Penicillin (10000 unit/mL)-Streptomycin(10,000 μg/mL) Liquid (GIBCO, Cat #15140-122); MEM Sodium Pyruvate solution 100 mM (100×), Liquid (GIBCO, Cat #11360); Nonessential amino acid (GIBCO, Cat #11140); L-Glutamine (GIBCO, Cat #25030); Anti-CD3 antibody (eBiosciences—16-0032); Anti-CD28 antibody (eBiosciences—16-0281); ACK lysis buffer (1 mL) (GIBCO, Cat #-A10492); Histopaque (density-1.083 gm/mL) (SIGMA 10831); Trypan blue solution (SIGMA-T8154); 2 mL Norm Ject Luer Lock syringe-(Sigma 2014-12); 40 μm nylon cell strainer (BD FALCON 35230); Hemacytometer (Bright line-SIGMA Z359629); FACS Buffer (PBS/0.1% BSA): Phosphate Buffered Saline (PBS) pH 7.2 (HiMedia TS1006) with 0.1% Bovine Serum Albumin (BSA) (SIGMA A7050) and sodium azide (SIGMA 08591); 5 mM stock solution of CFSE: CFSE stock solution was prepared by diluting lyophilized CFSE with 180 μL of Dimethyl sulfoxide (DMSO C2H6SO, SIGMA-D-5879) and aliquoted in to tubes for further use. Working concentrations were titrated from 10 μM to 1 μM. (eBioscience-650850-85); 0.05% Trypsin and 0.02% EDTA (SIGMA 59417C); 96-well format ELISA plates (Corning CLS3390); BD FACS caliber (E6016); Recombinant mouse B7-H1/PDL1 Fc Chimera, (rm-PD-L1 cat no: 1019-B7-100).
Splenocytes harvested in a 50 mL falcon tube by mashing mouse spleen in a 40 μm cell strainer were further treated with 1 mL ACK lysis buffer for 5 min at room temperature. After washing with 9 mL of RPMI complete media, cells were re-suspended in 3 mL of 1×PBS in a 15 mL tube. 3 mL of Histopaque was added carefully to the bottom of the tube without disturbing overlaying splenocyte suspension. After centrifuging at 800×g for 20 min at room temperature, the opaque layer of splenocytes was collected carefully without disturbing/mixing the layers. Splenocytes were washed twice with cold 1×PBS followed by total cell counting using Trypan Blue exclusion method and used further for cell based assays.
Splenocytes were cultured in RPMI complete media (RPMI+10% fetal bovine serum+1 mM sodium pyruvate+10,000 units/mL penicillin and 10,000 μg/mL streptomycin) and maintained in a CO2 incubator with 5% CO2 at 37° C.
CFSE is a dye that passively diffuses into cells and binds to intracellular proteins. 1×10^6 cells/mL of harvested splenocytes were treated with 5 μM of CFSE in pre-warmed 1×PBS/0.1% BSA solution for 10 min at 37° C. Excess CFSE was quenched using 5 volumes of ice-cold culture media to the cells and incubated on ice for 5 min CFSE labelled splenocytes were further given three washes with ice cold complete RPMI media. CFSE labelled 1×10^5 splenocytes added to wells containing either MDA-MB231 cells (1×10^5 cells cultured in high glucose DMEM medium) or recombinant human PDL-1 (100 ng/mL) and test compounds. Splenocytes were stimulated with anti-mouse CD3 and anti-mouse CD28 antibody (1 μg/mL each) and the culture was further incubated for 72 h at 37° C. with 5% CO2. Cells were harvested and washed thrice with ice cold FACS buffer and % proliferation was analysed by flow cytometry with 488 nm excitation and 521 nm emission filters.
Percent splenocyte proliferation was analysed using cell quest FACS program and percent rescue of splenocyte proliferation by compound was estimated after deduction of % background proliferation value and normalising to % stimulated splenocyte proliferation (positive control) as 100%.
Stimulated splenocytes: Splenocytes+anti-CD3/CD28 stimulation.
Background proliferation: Splenocytes+anti-CD3/CD28+PD-L1.
Compound proliferation: Splenocytes+anti-CD3/CD28+PD-L1+Compound. […]

T1 sequence (Q9EP73 with tags, fused parts or gaps limits assumed): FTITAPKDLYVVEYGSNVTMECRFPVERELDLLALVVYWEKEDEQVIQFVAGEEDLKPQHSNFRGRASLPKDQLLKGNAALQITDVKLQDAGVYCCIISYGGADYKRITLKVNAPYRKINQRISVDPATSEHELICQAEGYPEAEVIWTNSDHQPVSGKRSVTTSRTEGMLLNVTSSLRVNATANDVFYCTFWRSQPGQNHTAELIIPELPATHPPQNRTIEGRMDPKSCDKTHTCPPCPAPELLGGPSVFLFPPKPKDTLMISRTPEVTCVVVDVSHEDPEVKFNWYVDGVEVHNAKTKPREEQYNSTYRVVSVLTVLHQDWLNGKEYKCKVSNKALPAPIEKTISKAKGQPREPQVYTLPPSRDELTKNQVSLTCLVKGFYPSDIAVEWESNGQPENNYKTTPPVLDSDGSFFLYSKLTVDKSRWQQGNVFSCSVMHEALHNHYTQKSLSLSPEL

Structure (SMILES) | activation at 0.1 µM
O=C1COCCOCCNC(=O)[C@H](Cc2ccc(O)cc2)NC(=O)N2CCCC2C(=O)NNC(=O)[C@H](Cc2ccc(O)cc2)N1 (some centres unmarked) [Compound 1] | 76%
CC(O)[C@@H]1NC(=O)N[C@@H](CC(N)=O)C(=O)NNC(=O)[C@H](CCCCN)NC(=O)COCCOCCNC1=O (some centres unmarked) [Compound 2] | 57%
CC(O)[C@@H]1NC(=O)N[C@@H](Cc2ccccc2)C(=O)NNC(=O)[C@H](CO)NC(=O)COCCOCCNC1=O (some centres unmarked) [Compound 3] | 66%
NCCCC[C@@H]1NC(=O)COCCOCCNC(=O)[C@H](CCCCN)NC(=O)N[C@@H](CCCCN)C(=O)NNC1=O [Compound 5] | 24%
CC(O)[C@@H]1NC(=O)N[C@@H](CCCCN)C(=O)NNC(=O)[C@H](CO)NC(=O)COCCOCCNC1=O (some centres unmarked) [Compound 6] | 40%
CCC(C)[C@@H]1NC(=O)N[C@@H](C(C)O)C(=O)NCCOCCOCC(=O)N[C@@H](CO)C(=O)NNC1=O (some centres unmarked) [Compound 7] | 23%
CC(O)[C@@H]1NC(=O)N[C@@H](CC(N)=O)C(=O)NNC(=O)[C@H](CC(=O)O)NC(=O)COCCOCCNC1=O (some centres unmarked) [Compound 9] | 46%
O=C(O)C[C@@H]1NC(=O)COCCOCCNC(=O)[C@H](CC(=O)O)NC(=O)N[C@@H](CC(=O)O)C(=O)NNC1=O [Compound 10] | 53%
O=C1COCCOCCNC(=O)[C@H](CO)NC(=O)N[C@@H](CO)C(=O)NNC(=O)[C@H](CO)N1 [Compound 11] | 17%

Other lines, results leading:

activation at 0.1 µM | Structure (SMILES)
91% | CC(O)[C@@H]1NC(=O)COCCOCCNC(=O)[C@H](C(C)O)NC(=O)N[C@@H](C(C)O)C(=O)NNC1=O (some centres unmarked) [Compound 12]
53% | CC(C)C[C@@H]1NC(=O)N[C@@H](CC(N)=O)C(=O)NNC(=O)[C@H](CO)NC(=O)COCCOCCNC1=O [Compound 13]
40% | CCC(C)[C@@H]1NC(=O)N[C@@H](CCC(=O)O)C(=O)NCCOCCOCC(=O)N[C@@H](CCC(N)=O)C(=O)NNC1=O (some centres unmarked) [Compound 15]
30% | CC(O)[C@@H]1NC(=O)N[C@@H](Cc2ccccc2)C(=O)NNC(=O)[C@H](CCCCN)NC(=O)COCCOCCNC1=O (some centres unmarked) [Compound 16]
38% | CCC(C)[C@@H]1NC(=O)N[C@@H](CCC(N)=O)C(=O)NCCOCCOCC(=O)N[C@@H](CCC(=O)O)C(=O)NNC1=O (some centres unmarked) [Compound 17]
